PMC10301432, “Antiplasmodial, Trypanocidal, and Genotoxicity In Vitro Assessment of New Hybrid α,α-Difluorophenylacetamide-statin Derivatives” (Pharmaceuticals, 2023)
“Also recorded” adds a separate entry of the source. Where two headings read alike, the source gives them in different places.

What was measured:
[1] = system: CHO-K1 cells; format: cell-based, Chinese Hamster
Experimental: (§1) Fresh HepG2 and CHO-K1 cells were seeded at the density of 1 × 10^5 cells/mL into 24-well plates (1 mL/per well). The compounds 13 (a–d) were then added to the medium to final concentrations of 500, 1000 and 2000 µM and incubation continued for 3 h or 24 h. DMSO 10% was used as the negative control, and, BaP (80 µM) for HepG2 and MMC (5 µM) for CHO-K1 were the positive controls. After exposure to the compounds, the cells were incubated for more than 24 h under growth conditions before quantification of the micronuclei and cytotoxicity. The cytogenetic studies were carried out in triplicate as described previously (see [51]). In order to determine the mitotic index and the number of cells with micronuclei, the medium was replaced by a cold methanol-glacial acetic acid (3:1) fixative for 30 min, and the cells then rinsed with distilled water for 2 min and air dried. The fixed cells were stained with 4,6-diamidino-2-phenylindole (DAPI) ([…]) dissolved in McIlvaine buffer (0.1 M citric acid plus 0.2 M Na2HPO4, pH 7.0) for 60 min, washed with McIlvaine buffer for 5 min, briefly rinsed with distilled water and mounted in glycerol. To determine the mitotic index and the number of cells with micronuclei, 1000 cells per well (3000 cells per concentration) were analyzed under a fluorescence microscope. The results for micronuclei were presented as the percentage of cells containing micronuclei in the 3000 cells/concentration group analyzed. Cells that glowed brightly and had homogenous nuclei were considered as having normal phenotypic morphology. Apoptotic nuclei were identified by the condensed chromatin at the periphery of the nuclear membrane or by fragmented nuclear body morphology. Necrotic cells presented chromatin forms with irregularly shaped aggregates, a pyknotic nucleus (shrunken and darkly stained) and cell membrane disruption, with cellular debris spilled into the extracellular milieu. Once again, 3000 cells were counted and the percentage of viable cells was evaluated, discounting apoptotic and necrotic cells. Statistical differences between the groups were analyzed by two-way ANOVA (p < 0.01) and Tukey’s post hoc test.

[2] = system: Salmonella enterica serovar Typhimurium TA97; test: Salmonella/microsome assay, TA97; details: for mutagenicity to TA97: at concentrations above 300 µM
Experimental: (§2) Salmonella enterica serovar Typhimurium (S. typhimurium) strains TA97, TA98, TA100, TA104 and TA102 from the authors’ stock were used as described in the mutagenicity assay.
(§3) To determine the cytotoxic effects, after 30 min pre-incubation, the assay mixtures were diluted in 0.9% NaCl (w/v) to obtain a suspension containing 2 × 10^2 cells/mL. […] The plates were then incubated at 37 °C for 24 h and the colonies counted. All the experiments were conducted in triplicate and were repeated at least twice. Statistical differences between the groups were analyzed by a two-way ANOVA (p < 0.05) and Tukey’s post hoc test.

[3] = system: Salmonella enterica serovar Typhimurium TA104; test: Salmonella/microsome assay, TA104
Experimental: as §2, §3

[4] = Salmonella/microsome assay, TA104; details: Salmonella enterica serovar Typhimurium, S. typhimurium TA104 with S9 mix, LC50 (bacterial cytotoxicity) TA104, presence of S9 mix
Experimental: as §2, §3

[5] = system: Salmonella enterica serovar Typhimurium TA98; test: Salmonella/microsome assay, TA98
Experimental: as §2, §3

[6] = system: P. falciparum parasites (W2 clone) chloroquine-resistant; test: Antiplasmodial activity, anti-HRPII assay; format: cell-based, Plasmodium falciparum; details: for SI: LC50 (HepG2)/EC50 (P. falciparum); for EC50: P. falciparum W2 clone, 24 h at 37 °C, read-out: EC50; for Antiplasmodial Activity: summarized outcome
Description: P. falciparum W2 clone was maintained in continuous culture as previously described. […] Prior to testing, the ring-stage parasites were synchronized using sorbitol.
The test quantification was read at 450 nm on a spectrophotometer (SpectraMax340PC384, Molecular Devices Sunnyvale, CA, USA), and the drug activity was expressed as the half-maximal inhibitory concentration (EC50) compared to the drug-free controls using the curve-fitting software Origin 8.0 (OriginLab Corporation, Northampton, MA, USA).

[7] = in vitro; format: cell-based; details: human
Experimental: Human hepatocellular carcinoma (HepG2) and Chinese Hamster Ovary (CHO-K1) cells obtained from the American Type Culture Collection (Manassas, VA, USA) were cultured in Eagle’s medium (MEM, Gibco®, Waltham, MA, USA) containing 10% fetal bovine serum (FBS) plus 100 µg/mL streptomycin and 100 µg/mL penicillin at 37 °C in a 5% CO2 atmosphere. Logarithmic-phase cells were used in all the experiments.
Fresh HepG2 and CHO-K1 cells were seeded at a density of 1 × 10^4/well. […] Briefly, after treatment, the culture medium was replaced by 90 μL fresh culture medium and 10 μL WST-1 reagent and incubated at 37 °C and 5% CO2 for 3 h. The absorbance was then measured at 440 nm according to the kit protocol.

[8] = system: S. typhimurium TA97, TA98, TA100, TA102 and TA104 strains; test: Salmonella/microsome assay, overall outcome; details: all strains, −S9 and +S9; summarized outcome
Experimental: The mutagenicity reverse mutation test was carried out to investigate the potential of 13 (a–d) to induce genetic mutation in S. typhimurium TA97, TA98, TA100, TA102 and TA104 strains. The test was carried out according to the pre-incubation method, both in the absence and presence of a metabolic activation system (4% S9 mix, Aroclor-pre-induced, from Moltox Inc., Boone, NC, USA). DMSO 10% served as the negative control while known mutagens were used as the positive control substances. […] A dose-finding test was carried out with and without the metabolic activation system (S9 mix) for each tester strain.
For the assays without metabolic activation, 0.5 mL of 0.1 mol/L sodium-phosphate buffer (pH 7.4) was added, and for the assays in the presence of metabolic activation, 0.5 mL S9 mix was mixed with 0.1 mL culture medium (2 × 10^8 cells/mL) plus 0.1 mL of each compound solutions. The mixtures were incubated in a shaker at 37 °C (pre-incubation). After 30 min pre-incubation under light protection, the mixture was added to and mixed with 2 mL top agar containing 0.05 mmol/L L-histidine and D-biotin for the S. typhimurium strains. Each of these was then spread on a minimum glucose agar plate. After the top agar solidified, the plates were incubated at 37 °C for 60–72 h. Each tester strain was assayed in triplicate, and the number of revertant colonies was counted for each tester strain and treatment group [58].

[9] = system: Salmonella enterica serovar Typhimurium TA100; test: Salmonella/microsome assay, TA100
[10] = in vitro; details: Salmonella enterica serovar Typhimurium, pH 7.4
[11] = system: CHO-K1 and HepG2 cell lineages; format: cell-based
Experimental: as §1, with “Necrotic cells presented chromatin forms with irregularly shaped aggregates, a pyknotic nucleus (shrunken and darkly stained) and cell membrane disruption, with cellular debris spilled into the extracellular milieu.” left out

[12] = Plasmodium falciparum, W2, 24 h

CC(=O)Nc1ccc(Cl)cc1C(F)(F)C(=O)NCC[C@@H]1C[C@H](CC(=O)OC(C)(C)C)OC(C)(C)O1 [Compound 13c, tert-Butyl 2-((4R,6R)-6-(2-(2-(2-acetamido-5-chlorophenyl)-2,2-difluoroacetamido)ethyl)-2,2-dimethyl-1,3-dioxan-4-yl)acetate]
mitotic index [1]: did not affect the mitotic index
revertant His+ colonies TA97 ([2]; +S9, 3 µM): 219 ± 16
revertant His+ colonies TA97 ([2]; +S9, 15 µM): 245 ± 22
revertant His+ colonies TA97 ([2]; +S9, 30 µM): 247 ± 14
revertant His+ colonies TA97 ([2]; +S9, 150 µM): 249 ± 17
revertant His+ colonies TA97 ([2]; +S9, 300 µM): 259 ± 1
revertant His+ colonies TA97 ([2]; +S9, 1500 µM): 261 ± 13
revertant His+ colonies TA97 ([2]; −S9, 3 µM): 81 ± 6
revertant His+ colonies TA97 ([2]; −S9, 15 µM): 84 ± 8
revertant His+ colonies TA97 ([2]; −S9, 30 µM): 84 ± 6
revertant His+ colonies TA97 ([2]; −S9, 150 µM): 70 ± 6
revertant His+ colonies TA97 ([2]; −S9, 300 µM): 71 ± 11
revertant His+ colonies TA97 ([2]; −S9, 1500 µM): 62 ± 9
revertant His+ colonies TA104 ([3]; +S9, 3 µM): 384 ± 34
revertant His+ colonies TA104 ([3]; +S9, 15 µM): 401 ± 31
revertant His+ colonies TA104 ([3]; +S9, 30 µM): 445 ± 49
revertant His+ colonies TA104 ([3]; +S9, 150 µM): 305 ± 7
revertant His+ colonies TA104 ([3]; +S9, 300 µM): 297 ± 4
revertant His+ colonies TA104 ([3]; +S9, 1500 µM): Cytotoxic
CC50 ([3]; read-out: LC50 (bacterial cytotoxicity) TA104, presence of S9 mix): > 1200 µM
revertant His+ colonies TA104 ([3]; −S9, 3 µM): 195 ± 9
revertant His+ colonies TA104 ([3]; −S9, 15 µM): 199 ± 7
revertant His+ colonies TA104 ([3]; −S9, 30 µM): 192 ± 3
revertant His+ colonies TA104 ([3]; −S9, 150 µM): 201 ± 17
revertant His+ colonies TA104 ([3]; −S9, 300 µM): 206 ± 8
revertant His+ colonies TA104 ([3]; −S9, 1500 µM): 241 ± 10
CC50 at 30 min [4]: 1390 ± 14.8 µM
revertant His+ colonies TA98 ([5]; +S9, 3 µM): 34 ± 4
revertant His+ colonies TA98 ([5]; +S9, 15 µM): 35 ± 3
revertant His+ colonies TA98 ([5]; +S9, 30 µM): 39 ± 3
revertant His+ colonies TA98 ([5]; +S9, 150 µM): 37 ± 7
revertant His+ colonies TA98 ([5]; +S9, 300 µM): 47 ± 4
revertant His+ colonies TA98 ([5]; +S9, 1500 µM): 49 ± 5
revertant His+ colonies TA98 ([5]; −S9, 3 µM): 21 ± 2
revertant His+ colonies TA98 ([5]; −S9, 15 µM): 21 ± 5
revertant His+ colonies TA98 ([5]; −S9, 30 µM): 21 ± 3
revertant His+ colonies TA98 ([5]; −S9, 150 µM): 21 ± 2
revertant His+ colonies TA98 ([5]; −S9, 300 µM): 21 ± 1
revertant His+ colonies TA98 ([5]; −S9, 1500 µM): 23 ± 4
SI [6]: >85
EC50 [6]: 11.8 ± 2 µM
EC50 [6, 12]: < 14 µM
Antiplasmodial Activity [6]: Yes
CC50 at 24 h [7]: > 1000 µM
Bacterial Mutagenicity [8]: not mutagenic and No
revertant His+ colonies TA100 ([9]; +S9, 3 µM): 223 ± 39
revertant His+ colonies TA100 ([9]; +S9, 15 µM): 223 ± 47
revertant His+ colonies TA100 ([9]; +S9, 30 µM): 228 ± 17
revertant His+ colonies TA100 ([9]; +S9, 150 µM): 278 ± 5
revertant His+ colonies TA100 ([9]; +S9, 300 µM): 286 ± 18
revertant His+ colonies TA100 ([9]; +S9, 1500 µM): 300 ± 15
revertant His+ colonies TA100 ([9]; −S9, 3 µM): 135 ± 38
revertant His+ colonies TA100 ([9]; −S9, 15 µM): 135 ± 21
revertant His+ colonies TA100 ([9]; −S9, 30 µM): 135 ± 30
revertant His+ colonies TA100 ([9]; −S9, 150 µM): 140 ± 31
revertant His+ colonies TA100 ([9]; −S9, 300 µM): 164 ± 17
revertant His+ colonies TA100 ([9]; −S9, 1500 µM): 168 ± 15

CC(=O)Nc1ccc(Br)cc1C(F)(F)C(=O)NCC[C@@H]1C[C@H](CC(=O)OC(C)(C)C)OC(C)(C)O1 [Compound 13d, tert-Butyl 2-((4R,6R)-6-(2-(2-(2-acetamido-5-bromophenyl)-2,2-difluoroacetamido)ethyl)-2,2-dimethyl-1,3-dioxan-4-yl)acetate]
micronuclei formation (genotoxicity) [1]: induced genotoxicity
revertant His+ colonies TA97 ([2]; +S9, 3 µM): 134 ± 3
revertant His+ colonies TA97 ([2]; +S9, 15 µM): 135 ± 1
revertant His+ colonies TA97 ([2]; +S9, 30 µM): 201 ± 4
revertant His+ colonies TA97 ([2]; +S9, 150 µM): 203 ± 1
revertant His+ colonies TA97 ([2]; +S9, 300 µM): 288 ± 6
revertant His+ colonies TA97 ([2]; +S9, 1500 µM): 410 ± 10
mutagenicity to TA97 ([2]; +S9): significant mutagenicity; also recorded: mutagenic
revertant His+ colonies TA97 ([2]; −S9, 3 µM): 119 ± 8
revertant His+ colonies TA97 ([2]; −S9, 15 µM): 137 ± 1
revertant His+ colonies TA97 ([2]; −S9, 30 µM): 135 ± 4
revertant His+ colonies TA97 ([2]; −S9, 150 µM): 134 ± 4
revertant His+ colonies TA97 ([2]; −S9, 300 µM): 146 ± 6
revertant His+ colonies TA97 ([2]; −S9, 1500 µM): Cytotoxic
mutagenicity to TA97 ([2]; −S9): significant mutagenicity; also recorded: mutagenic
revertant His+ colonies TA104 ([3]; +S9, 3 µM): 490 ± 52
revertant His+ colonies TA104 ([3]; +S9, 15 µM): 513 ± 19
revertant His+ colonies TA104 ([3]; +S9, 30 µM): 530 ± 7
revertant His+ colonies TA104 ([3]; +S9, 150 µM): 541 ± 29
revertant His+ colonies TA104 ([3]; +S9, 300 µM): 589 ± 5
revertant His+ colonies TA104 ([3]; +S9, 1500 µM): 591 ± 11
revertant His+ colonies TA104 ([3]; −S9, 3 µM): 469 ± 65
revertant His+ colonies TA104 ([3]; −S9, 15 µM): 515 ± 61
revertant His+ colonies TA104 ([3]; −S9, 30 µM): 570 ± 53
revertant His+ colonies TA104 ([3]; −S9, 150 µM): 605 ± 61
revertant His+ colonies TA104 ([3]; −S9, 300 µM): 615 ± 15
revertant His+ colonies TA104 ([3]; −S9, 1500 µM): 620 ± 31
revertant His+ colonies TA98 ([5]; +S9, 3 µM): 28 ± 1
revertant His+ colonies TA98 ([5]; +S9, 15 µM): 28 ± 5
revertant His+ colonies TA98 ([5]; +S9, 30 µM): 31 ± 7
revertant His+ colonies TA98 ([5]; +S9, 150 µM): 34 ± 2
revertant His+ colonies TA98 ([5]; +S9, 300 µM): 34 ± 4
revertant His+ colonies TA98 ([5]; +S9, 1500 µM): 35 ± 3
revertant His+ colonies TA98 ([5]; −S9, 3 µM): 22 ± 7
revertant His+ colonies TA98 ([5]; −S9, 15 µM): 23 ± 5
revertant His+ colonies TA98 ([5]; −S9, 30 µM): 25 ± 1
revertant His+ colonies TA98 ([5]; −S9, 150 µM): 25 ± 1
revertant His+ colonies TA98 ([5]; −S9, 300 µM): 27 ± 5
revertant His+ colonies TA98 ([5]; −S9, 1500 µM): Cytotoxic
CC50 [10]: 14.7 ± 1.8 µM
SI [6]: Inactive
EC50 [6, 12]: > 89 µM
Antiplasmodial Activity [6]: No
Mammalian Cell Genotoxicity [11]: Yes
CC50 at 24 h [7]: > 1000 µM
Bacterial Mutagenicity [8]: Yes
revertant His+ colonies TA100 ([9]; +S9, 3 µM): 156 ± 18
revertant His+ colonies TA100 ([9]; +S9, 15 µM): 166 ± 11
revertant His+ colonies TA100 ([9]; +S9, 30 µM): 173 ± 1
revertant His+ colonies TA100 ([9]; +S9, 150 µM): 174 ± 21
revertant His+ colonies TA100 ([9]; +S9, 300 µM): 181 ± 15
revertant His+ colonies TA100 ([9]; +S9, 1500 µM): Cytotoxic
revertant His+ colonies TA100 ([9]; −S9, 3 µM): 99 ± 4
revertant His+ colonies TA100 ([9]; −S9, 15 µM): 96 ± 12
revertant His+ colonies TA100 ([9]; −S9, 30 µM): 93 ± 1
revertant His+ colonies TA100 ([9]; −S9, 150 µM): Cytotoxic
